Patent US20120149576A1, “METHOD FOR CULTIVATING CROP PLANT” (SUMITOMO CHEMICAL COMPANY, LIMITED, priority 2009, published 2012)

Tests used:
[1] = system: recombinant tobacco line P023 leaf discs; test: Resistance test using leaf discs on MS agar medium supplemented with saflufenacil; format: cell-based; details: for Score of adverse effects (browning or chlorosis) on leaf disc / Ratio of green area to leaf disc area (%): P023; for Score of adverse effects (browning or chlorosis) on leaf disc / Observed adverse effect on leaf discs: day 8; for Score of adverse effects (browning or chlorosis) on leaf disc: 5 plants; for Ratio of green area to leaf disc area (%): image analysis of FIG. 1, day 8; for Observed adverse effect on leaf discs: recombinant tobacco line P023
Method: : DNA encoding the amino acid sequence of SEQ ID NO:3; Homozygote seeds of the recombinant tobacco lines 1609soy#25 and […], which are described in EP1598423, and progeny seeds of the recombinant tobacco line P-6-1, which is also described in EP1598423, were aseptically sown on MS agar medium supplemented with 100 mg/L kanamycin and screened for plants with […] resistance. Leaf discs were prepared by cutting true leaves of the selected plants at 1 month after sowing, and placed on MS agar medium supplemented with 0.01 ppm, 0.03 ppm or 0.10 ppm saflufenacil. As negative control, seeds of wild-type SR-1 tobacco plants were aseptically sown on MS agar medium and, similarly, leaf discs were prepared by cutting true leaves of the plants at 1 month after sowing, and placed on MS agar medium supplemented with 0.01 ppm, 0.03 ppm or 0.10 ppm saflufenacil. […] The leaf discs were prepared from 5 individual plants for each experimental plot. Scoring evaluation was conducted according to the degrees of adverse effects manifested as browning or chlorosis. The scoring criteria are as follows: In the photograph shown in FIG. 1, the green-colored portions were color extracted using the image analysis software “Win ROOF ver.6.1.0” (MITANI Corporation) and their area was quantified. This was then divided by the area calculated by subtracting the area of the medium from the entire area of the image, thereby calculating the percentage of the area of the green-colored portions to the area of the leaf disc.

[2] = system: recombinant soybean lines J16, J18, J26 and J28; test: Resistance test using a spreader: soybean; format: in vivo; details: spray application as in Example 2, about two weeks later
Method: Seeds of the T2 generation of the recombinant soybean lines J16, […], J26 and J28, which are described in US20060009361, are aseptically sown in the culture pots charged with Kureha soil and grown for about 3 weeks in the phytotron. As negative control, seeds of a wild-type soybean (cv. Jack) are similarly grown in the phytotron. The plants thus obtained are subjected to the saflufenacil application test. The application test is conducted according to the method described above in Example 2. About two weeks later, the susceptibility of the tested recombinant soybean plants to saflufenacil is compared with that of the wild-type soybean plants (cv. Jack) to saflufenacil.

[3] = system: wild-type SR-1 tobacco leaf discs; test: Resistance test using leaf discs on MS agar medium supplemented with saflufenacil; format: cell-based; details: for Score of adverse effects (browning or chlorosis) on leaf disc / Ratio of green area to leaf disc area (%): Wild-type SR-1; for Score of adverse effects (browning or chlorosis) on leaf disc / Observed adverse effect on leaf discs: day 8; for Score of adverse effects (browning or chlorosis) on leaf disc: 5 plants; for Ratio of green area to leaf disc area (%): image analysis of FIG. 1, day 8; for Observed adverse effect on leaf discs: wild-type SR-1 tobacco leaves
Method: (§1) Homozygote seeds of the recombinant tobacco lines 1609soy#25 and P023, which are described in EP1598423, and progeny seeds of the recombinant tobacco line P-6-1, which is also described in EP1598423, were aseptically sown on MS agar medium supplemented with 100 mg/L kanamycin and screened for plants with kanamaycin resistance. Leaf discs were prepared by cutting true leaves of the selected plants at 1 month after sowing, and placed on MS agar medium supplemented with 0.01 ppm, 0.03 ppm or 0.10 ppm saflufenacil. As negative control, seeds of wild-type SR-1 tobacco plants were aseptically sown on MS agar medium and, similarly, leaf discs were prepared by cutting true leaves of the plants at 1 month after sowing, and placed on MS agar medium supplemented with 0.01 ppm, 0.03 ppm or 0.10 ppm saflufenacil.
(§2) The leaf discs were prepared from 5 individual plants for each experimental plot. Scoring evaluation was conducted according to the degrees of adverse effects manifested as browning or chlorosis. The scoring criteria are as follows:
(§3) In the photograph shown in FIG. 1, the green-colored portions were color extracted using the image analysis software “Win ROOF ver.6.1.0” (MITANI Corporation) and their area was quantified. This was then divided by the area calculated by subtracting the area of the medium from the entire area of the image, thereby calculating the percentage of the area of the green-colored portions to the area of the leaf disc.

[4] = system: recombinant tobacco line 1609soy#25 leaf discs; test: as above; format: cell-based; details: for Score of adverse effects (browning or chlorosis) on leaf disc / Ratio of green area to leaf disc area (%): 1609soy#25; for Score of adverse effects (browning or chlorosis) on leaf disc / Observed adverse effect on leaf discs: day 8; for Score of adverse effects (browning or chlorosis) on leaf disc: 5 plants; for Ratio of green area to leaf disc area (%): image analysis of FIG. 1, day 8; for Observed adverse effect on leaf discs: recombinant tobacco line 1609soy#25
Method: 1609soy#25: DNA encoding the amino acid sequence of SEQ ID NO:1;
as §1, §2, §3

[5] = system: recombinant tobacco lines 1609soy#17 and #25, 1584soy#16, P023, and 35S-2; test: Resistance test using a spreader: tobacco; format: in vivo; details: spray application with automatic spreader; about two weeks later; homozygotes of 1609soy#17, #25, 1584soy#16, P023, 35S-2
Description: Homozygote seeds of the recombinant tobacco lines 1609soy#17 and #25, 1584soy#16, […], and 35S-2, which are described in EP1598423, are aseptically sown on MS agar medium. Subsequently, the germinated individuals are transferred to culture pots charged with Kureha soil (Kureha Chemicals) and acclimated to the outdoor environment in the phytotron. They are than grown for two weeks in the phytotron. As negative control, seeds of wild-type SR-1 tobacco plants are aseptically sown on MS agar medium and, similarly grown in the phytotron. The plants thus obtained are subjected to the saflufenacil application test. The spray solution is prepared by dissolving saflufenacil in an appropriate solvent, adding an adjuvant, and diluting it with water. Application of the spray solution to the plants are conducted using an wheeled automatic spreader (Mamba Architect Office), by homogenously spraying 20 mL of the solution onto the seedlings of the recombinant and wild-type tobacco plants placed within a 0.9 square-meter area to which the solution is applied. About two weeks later, the susceptibility of the tested recombinant tobacco plants to saflufenacil is compared with that of the wild-type SR-1 tobacco plants to saflufenacil. […] Scoring evaluation is conducted according to the degrees of adverse effects manifested as death of individual plants, or browning or chlorosis of the leaves or stems.

[6] = system: recombinant tobacco line P-6-1 (progeny) leaf discs; test: Resistance test using leaf discs on MS agar medium supplemented with saflufenacil; format: cell-based; details: for Score of adverse effects (browning or chlorosis) on leaf disc / Ratio of green area to leaf disc area (%): P-6-1; for Score of adverse effects (browning or chlorosis) on leaf disc: 5 plants; for Ratio of green area to leaf disc area (%): image analysis of FIG. 1, day 8
Method: P-6-1; DNA encoding the amino acid sequence of SEQ ID NO:1 and DNA encoding the amino acid sequence of SEQ ID NO:3;
as §1, §2, §3

SMILES: CC(C)N(C)S(=O)(=O)NC(=O)c1cc(-n2c(=O)cc(C(F)(F)F)n(C)c2=O)c(F)cc1Cl [Saflufenacil, N′-{2-chloro-4-fluoro-5-[1,2,3,6-tetrahydro-3-methyl-2,6-dioxo-4-(trifluoromethyl)pyrimidine-1-yl]benzoyl}-N-isopropyl-N-methyl sulfamide]
- Score of adverse effects (browning or chlorosis) on leaf disc ([1]; saflufenacil 0.01 ppm): 3.0
- Ratio of green area to leaf disc area (%) ([1]; saflufenacil 0.01 ppm): 89%
- Score of adverse effects (browning or chlorosis) on leaf disc ([1]; saflufenacil 0.03 ppm): 3.0
- Ratio of green area to leaf disc area (%) ([1]; saflufenacil 0.03 ppm): 86%
- Score of adverse effects (browning or chlorosis) on leaf disc ([1]; saflufenacil 0.10 ppm): 2.0
- Ratio of green area to leaf disc area (%) ([1]; saflufenacil 0.10 ppm): 51%
- Observed adverse effect on leaf discs ([1]; 0.10 ppm): partial chlorosis
- Observed adverse effect on leaf discs ([1]; up to 0.03 ppm): no adverse effect
- Susceptibility of recombinant soybean plants to saflufenacil compared with wild-type soybean (cv. Jack) [2]: lower susceptibility
- Score of adverse effects (browning or chlorosis) on leaf disc ([3]; saflufenacil 0.01 ppm): 2.0
- Ratio of green area to leaf disc area (%) ([3]; saflufenacil 0.01 ppm): 77%
- Score of adverse effects (browning or chlorosis) on leaf disc ([3]; saflufenacil 0.03 ppm): 1.0
- Ratio of green area to leaf disc area (%) ([3]; saflufenacil 0.03 ppm): 20%
- Score of adverse effects (browning or chlorosis) on leaf disc ([3]; saflufenacil 0.10 ppm): 0.2
- Ratio of green area to leaf disc area (%) ([3]; saflufenacil 0.10 ppm): 2%
- Observed adverse effect on leaf discs ([3]; 0.01 ppm): partial browning
- Observed adverse effect on leaf discs ([3]; 0.10 ppm): overall chlorosis
- Score of adverse effects (browning or chlorosis) on leaf disc ([4]; saflufenacil 0.01 ppm): 3.0
- Ratio of green area to leaf disc area (%) ([4]; saflufenacil 0.01 ppm): 85%
- Score of adverse effects (browning or chlorosis) on leaf disc ([4]; saflufenacil 0.03 ppm): 2.0
- Ratio of green area to leaf disc area (%) ([4]; saflufenacil 0.03 ppm): 80%
- Score of adverse effects (browning or chlorosis) on leaf disc ([4]; saflufenacil 0.10 ppm): 1.0
- Ratio of green area to leaf disc area (%) ([4]; saflufenacil 0.10 ppm): 8%
- Observed adverse effect on leaf discs ([4]; 0.01 ppm): no adverse effect
- Observed adverse effect on leaf discs ([4]; 0.03 ppm): partial browning
- Observed adverse effect on leaf discs ([4]; 0.10 ppm): overall browning
- Susceptibility of recombinant tobacco plants to saflufenacil compared with wild-type SR-1 [5]: lower susceptibility
- Score of adverse effects (browning or chlorosis) on leaf disc ([6]; saflufenacil 0.01 ppm, day 8): 3.0
- Ratio of green area to leaf disc area (%) ([6]; saflufenacil 0.01 ppm): 87%
- Score of adverse effects (browning or chlorosis) on leaf disc ([6]; saflufenacil 0.03 ppm, day 8): 2.6
- Ratio of green area to leaf disc area (%) ([6]; saflufenacil 0.03 ppm): 78%
- Score of adverse effects (browning or chlorosis) on leaf disc ([6]; saflufenacil 0.10 ppm, day 8): 3.0
- Ratio of green area to leaf disc area (%) ([6]; saflufenacil 0.10 ppm): 83%
- Observed adverse effect on leaf discs ([6]; progeny plants of recombinant tobacco line P-6-1, 0.10 ppm, day 8): no adverse effect
